Laboratory results reported in PubChem BioAssay (NCI).
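Each compound was tested at five concentrations against cells in 96-well plates for 48 hours. GI50 is the concentration that inhibits growth by half. TGI: total growth inhibition.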

Assays:
Experiment in all cases: growth of human tumour cells (NCI), 48 h
ACHN renal = tested on: ACHN renal
DU-145 prostate = tested on: DU-145 prostate
HL-60(TB) leukemia = tested on: HL-60(TB) leukemia
MOLT-4 leukemia = tested on: MOLT-4 leukemia
PC-3 prostate = tested on: PC-3 prostate
SF-268 CNS = tested on: SF-268 CNS
SK-MEL-28 melanoma = tested on: SK-MEL-28 melanoma
SNB-19 CNS = tested on: SNB-19 CNS
SNB-75 CNS = tested on: SNB-75 CNS
TK-10 renal = tested on: TK-10 renal

SMILES | GI50 (ACHN renal) [µM] | TGI (ACHN renal) [µM] | GI50 (DU-145 prostate) [µM] | TGI (DU-145 prostate) [µM] | GI50 (HL-60(TB) leukemia) [µM] | TGI (HL-60(TB) leukemia) [µM] | GI50 (MOLT-4 leukemia) [µM] | TGI (MOLT-4 leukemia) [µM] | GI50 (PC-3 prostate) [µM] | TGI (PC-3 prostate) [µM] | GI50 (SF-268 CNS) [µM] | TGI (SF-268 CNS) [µM] | GI50 (SK-MEL-28 melanoma) [µM] | TGI (SK-MEL-28 melanoma) [µM] | GI50 (SNB-19 CNS) [µM] | TGI (SNB-19 CNS) [µM] | GI50 (SNB-75 CNS) [µM] | TGI (SNB-75 CNS) [µM] | GI50 (TK-10 renal) [µM] | TGI (TK-10 renal) [µM]
Oc1ccc(C(c2ccc(O)cc2)c2ccc(Br)cn2)cc1 | 0.45 | 14.5 | 2.8 | > 69.3 | 10.6 | 44 | 21.3 | 76.4 | 0.257 | 0.72 | 21.5 | > 91 | 21.3 | 60 | 16.1 | > 100 | 0.192 | 0.635 | 0.258 | 1.13
COc1ccc(N(CC(=O)NCCC[Te]c2ccccc2)C(=O)CNC(=O)OC(C)(C)C)cc1 | 3.12 | 8.86 | 2.91 | 7.6 | 2.08 | 5.6 | 3.08 | 9.89 | 1.72 | 10.1 | 2.7 | 7.56 | 3.07 | 10.1 | 0.875 | 9.64 | 2.07 | 7.43 | 3.93 | 10.8
Cc1cc[n+]2c(c1)-c1cc(C)cc[n+]1CC2 |  | > 100 |  | > 100 |  | > 100 |  | > 100 |  | > 100 |  | > 100 |  | > 100 |  | > 100 |  | > 100 |  | > 100
OC(C#Cc1ccccc1)(c1ccccc1)c1ccccc1 |  | > 100 |  | > 100 |  | > 100 |  | > 100 |  | > 100 |  | 54.9 |  | > 100 |  | > 100 |  | > 100 |  | 77.4
CC(=O)NCc1cccc(C#Cc2cncnc2Nc2ccc(OCc3cccc(F)c3)c(Cl)c2)c1 | 5.84 | > 25 | 10.1 | > 25 | 7.76 | > 22.5 | 7.42 | > 25 | 8.37 | > 25 | 16.7 | > 25 | 19.8 | > 25 | > 21.8 | > 25 | > 21 | > 25 | 1.97 | > 20.2
CCCCCCNC(=O)Oc1ccc(/C(=C(\C)c2ccc(Cl)cc2)c2ccc(OCCN3CCCCC3)cc2)cc1 | 4.87 | 9.55 | 6.26 | 16.4 | 1.17 | 4.88 | 1.47 | 23.3 | 2.23 | 14.1 | 4.9 | 14 | 4.34 | 9.34 | 6.37 | 28.9 | 5.59 | 14.3 | 5.79 | 12.2
N#CCN1CCn2c1nsc2=S | > 100 | > 100 | > 100 | > 100 | 20.2 | > 100 | 5.1 | > 100 | > 100 | > 100 | > 100 | > 100 | > 100 | > 100 | > 100 | > 100 | > 100 | > 100 | > 100 | > 100
COC(=O)c1cncc(/C=C/c2c(C)cc(O)cc2C)c1 | > 21.5 | > 25 | 13.6 | > 25 | 2.25 | 5.96 | 4.19 | > 20.1 | 12.2 | > 25 | 14.1 | > 25 | > 12.7 | 24.8 | > 21.9 | > 25 | > 9.93 | > 18.8 | > 25 | > 25
COc1cc(/C=C/C(=O)c2cccc(-n3cc(-c4ccc(Cl)cc4)[nH]c3=O)c2)cc(OC)c1OC | 7.17 | 19.5 | 4.53 | 27 | 15.7 | > 100 | 5.24 | > 100 | 16.5 | > 100 | 5.07 | 39.2 | 10.9 | 25.6 | 16.1 | 37 | 20.5 | > 100 | 6.46 | 71.5
CCC1(O)C(=O)OCc2c1cc1n(c2=O)Cc2cc3c(NC(=O)CN)cccc3nc2-1 (centres undefined) | 0.187 | 2.71 | 0.348 | > 20.2 | 0.129 | 1.64 | 0.0438 | 1.13 | 2.72 | > 100 | 0.191 | 46.5 |  | > 100 | 0.492 | > 100 | 0.346 | 5.14 | 38.7 | > 97.6
COc1cc2nc(-c3cc(F)ccc3O)nc(N[C@@H]3CNC[C@H]3C(C)(C)O)c2cc1OC | 1.75 | 3.38 | 1.51 | 2.96 | 1.78 | 4.2 | 2.09 | 4.7 | 2.09 | 5.7 | 1.32 | 2.75 | 1.86 | 3.41 | 1.91 | 4.02 | 0.42 | 2.71 | 1.94 | 5.68
COC(=O)c1cc2c(cc1Cl)SC1=NN(C)C(N(C)C)N1S2(=O)=O (centres undefined) | > 100 | > 100 | > 100 | > 100 | > 100 | > 100 | 62.8 | > 100 | > 100 | > 100 | > 100 | > 100 | > 100 | > 100 | > 100 | > 100 | > 100 | > 100 | > 100 | > 100
Cc1ccc(-c2nc([P+](c3ccccc3)(c3ccccc3)c3ccccc3)c(S(=O)(=O)c3ccc(C)cc3)o2)cc1 | 1.46 | 2.78 | 1.27 | 2.52 | 1.67 | 4.38 | 1.06 | 4.63 | 1.43 | 3.28 | 1.55 | 2.97 | 1.7 | 3.09 | 1.64 | 3.3 | 1.21 | 4.41 | 1.73 | 3.27
